Structures can show the parent of a compound that is named as a salt.

The target of one experiment is T1, human B2 receptor (Homo sapiens, UniProt P30411).
T1 construct: human B2 receptor expressed in human fibroblasts W138; endogenous in cells; host or cells: human fibroblasts W138 (WI-38)
T1 sequence (P30411 1-391): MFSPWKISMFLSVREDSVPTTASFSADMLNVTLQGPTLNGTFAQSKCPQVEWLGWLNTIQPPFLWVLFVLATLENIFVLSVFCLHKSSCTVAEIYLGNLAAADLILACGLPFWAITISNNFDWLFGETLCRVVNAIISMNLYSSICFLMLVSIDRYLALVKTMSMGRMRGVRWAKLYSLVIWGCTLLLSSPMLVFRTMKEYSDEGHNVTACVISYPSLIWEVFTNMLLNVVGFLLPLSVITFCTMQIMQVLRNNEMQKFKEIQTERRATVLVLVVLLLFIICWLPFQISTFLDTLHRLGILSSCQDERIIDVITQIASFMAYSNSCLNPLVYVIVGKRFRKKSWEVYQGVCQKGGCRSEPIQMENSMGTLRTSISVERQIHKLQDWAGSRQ
Kind of experiment: binding to the human B2 receptor expressed in human fibroblasts W138.
Details: not given
The source says: In the following the binding values are reported expressed as pKi.
In the case of `Cc1ccc2cccc(OCc3c(Cl)ccc(S(=O)(=O)NC(C)(C)C(=O)N4CCN(C(=N)N)CC4)c3Cl)c2n1` [Example 20, 4-{2-[2,4-Dichloro-3-(2-methyl-quinolin-8-yloxymethyl)-benzenesulfonylamino]-2-methyl-propionyl}-piperazine-1-carboxamidine], the Ki was 0.631 nM.

For the compound `CCN=C(NCC)NCCC[C@H](N)C(=O)N1CCN(C(=O)C(C)(C)NS(=O)(=O)c2ccc(Cl)c(COc3cccc4ccc(C)nc34)c2Cl)CC1` [Example 41], the Ki is 0.501 nM.

Compound `CCN=C(NCC)NCCCC[C@H](N)C(=O)N1CCN(C(=O)C2(NS(=O)(=O)c3ccc(Cl)c(COc4cccc5c(C)cc(C)nc45)c3Cl)CCCC2)CC1` [Example 43, (2S)—N-(1-{4-[2-Amino-6-(N′,N″-diethyl-guanidino)-hexanoyl]-piperazine-1-carbonyl}-cyclopentyl)-2,4-dichloro-3-(2,4-dimethyl-quinolin-8-yloxymethyl)-benzenesulfonamide] gave a Ki of 0.398 nM.

Consider `Cc1ccc2cccc(OCc3c(Cl)ccc(S(=O)(=O)NC(C)(C)C(=O)N4CCN(C(=O)[C@H](N)CCCNC(=N)N)CC4)c3Cl)c2n1` [Example 51, N-[2-[4-(2-(R)-Amino-5-guanidino-pentanoyl)-piperazin-1-yl]-1,1-dimethyl-2-oxo-ethyl]-2,4-dichloro-3-(2-methyl-quinolin-8-yloxymethyl)-benzenesulfonamide], for which the Ki is 0.398 nM.

Still in this experiment, the particulars now being: human B2 receptor expressed in human fibroblasts W138.
Consider “N-[1-[4-(2-(S)-Dimethylamino-6-dimethylamino-hexanoyl)-piperazin-1-yl]-cyclopentyl]-2,4-dichloro-3-(2,4-dimethyl-quinolin-8-yloxymethyl)-benzenesulfonamide tris trifluoroacetate [Example 85]”, for which the pKi came out at 9.3.

For the compound `Cc1cc(C)c2cccc(OCc3c(Cl)ccc(S(=O)(=O)NC4(C(=O)N5CCN(C(=O)C[C@H](CCCNC(=NC6CCCCC6)NC6CCCCC6)NC(=NC6CCCCC6)NC6CCCCC6)CC5)CCCC4)c3Cl)c2n1.O=C(O)C(F)(F)F.O=C(O)C(F)(F)F.O=C(O)C(F)(F)F` [Example 80, N-(1-{4-[3-(S),6-Bis-(N′,N″-dicyclohexyl-guanidino)-hexaoyl]-piperazine-1-carbonyl}-cyclopentyl)-2,4-dichloro-3-(2,4-dimethyl-quinolin-8-yloxymethyl)-benzensulfonamide tris trifluoroacetate], the pKi was determined as 9.2.

The compound `Cc1cc(C)c2cccc(OCc3c(Cl)ccc(S(=O)(=O)NC4(C(=O)N5CCN(C(=O)CCCCC[N+](C)(C)C)CC5)CCCC4)c3Cl)c2n1` [Example 91, N-{1-[4-(6-Trimethylammonium-hexanoyl)-piperazine-1-carbonyl]-cyclopentyl}-2,4-dichloro-3-(2,4-dimethyl-quinolin-8-yloxymethyl)-benzenesulfonamide bis trifluoroacetate] yielded a pKi of 9.3.

Still in this experiment, the particulars now being: human B2 receptor expressed in human fibroblasts W138; read-out: pKi (converted).
Regarding `Cc1cc(C)c2cccc(OCc3c(Cl)ccc(S(=O)(=O)NC4(C(=O)N5CCN(C(=O)C[C@@H](O)C[N+](C)(C)C)CC5)CCCC4)c3Cl)c2n1` [Example 84, N-{1-[4-(3(R)-Hydroxy-4-trimethylammonium-butanoyl)-piperazine-1-carbonyl]-cyclopentyl}-2,4-dichloro-3-(2,4-dimethyl-quinolin-8-yloxymethyl)-benzenesulfonamide bis trifluoroacetate], the Ki is 0.631 nM.

With `Cc1cc(C)c2cccc(OCc3c(Cl)ccc(S(=O)(=O)NC4(C(=O)N5CCN(CCN6CCNCC6)CC5)CCCC4)c3Cl)c2n1` [Example 100, 2,4-Dichloro-3-(2,4-dimethyl-quinolin-8-yloxymethyl)-N-{1-[4-(2-piperazin-1-yl-ethyl)-piperazine-1-carbonyl]-cyclopentyl}-benzenesulfonamide tetra trifluoroacetate], the Ki was 0.398 nM.

The pKi is −log10 of the Ki, conventionally taken in molar units.
